The test deals with T1, histamine 3 receptor (H3R) (Homo sapiens, UniProt Q9Y5N1).
T1 construct: expressed in transfected cells; host or cells: CHO cells
T1 sequence (Q9Y5N1 whole entry): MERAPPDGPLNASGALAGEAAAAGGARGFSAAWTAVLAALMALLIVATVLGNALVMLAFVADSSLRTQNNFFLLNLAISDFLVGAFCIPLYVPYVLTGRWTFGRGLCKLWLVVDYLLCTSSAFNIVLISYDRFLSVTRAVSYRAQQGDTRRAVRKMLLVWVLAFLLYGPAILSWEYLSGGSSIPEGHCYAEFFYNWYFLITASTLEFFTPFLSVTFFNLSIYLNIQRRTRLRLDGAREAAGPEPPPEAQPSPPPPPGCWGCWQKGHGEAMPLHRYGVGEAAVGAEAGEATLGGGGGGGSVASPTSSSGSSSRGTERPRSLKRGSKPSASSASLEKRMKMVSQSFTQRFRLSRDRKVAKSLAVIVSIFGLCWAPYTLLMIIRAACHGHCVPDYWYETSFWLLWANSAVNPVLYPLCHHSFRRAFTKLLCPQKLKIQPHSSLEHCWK
Put plainly: Binding assay with 3H-(R)α-methylhistamine, competition binding on membranes of the human H3R-CHO cell line. To be noted: competition with 3H(R)α-methylhistamine (1 nM), Ki calculated from IC50 by Cheng-Prusoff. As for the experimental part: Binding Assay with ^3H-(R)α-methylhistamine
Saturation binding experiments were performed using HR3-CHO membranes prepared as described in Takahashi, K, Tokita, S., Kotani, H. (2003) J. Pharmacol. Exp. Therapeutics 307, 213-218.
An appropriate amount of membrane (60 to 80 μg protein/well) was incubated with increasing concentrations of ^3H(R)α-Methylhistamine di-hydrochloride (0.10 to 10 nM). Non specific binding was determined using a 200 fold excess of cold (R)α-Methylhistamine dihydrobromide (500 nM final concentration). The incubation was carried out at room temperature (in deep-well plates shaking for three hours). The final volume in each well was 250 μl. The incubation was followed by rapid filtration on GF/B filters (pre-soaked with 100 μl of 0.5% PEI in Tris 50 mM shaking at 200 rpm for two hours). The filtration was made using a cell-harvester and the filter plates were then washed five times with ice cold washing buffer containing 0.5 M NaCl. After harvesting, the plates were dried at 55° C. for 60 min, then we added scintillation fluid (Microscint 40, 40 microl in each well) and the amount of radioactivity on the filter was determined in Packard top-counter after shaking the plates for two hours at 200 rpm at room temperature.
Binding Buffer: 50 mM Tris-HCl pH 7.4 and 5 mM MgCl2×6H2O pH 7.4. Washing Buffer: 50 mM Tris-HCl pH 7.4 and 5 mM MgCl2×6H2O and 0.5 M NaCl pH 7.4.
Indirect measurement of affinity of H3R inverse agonists: twelve increasing concentrations (ranging from 10 μM to 0.3 nM) of the selected compounds were always tested in competition binding experiments using membrane of the human H3R-CHO cell line. An appropriate amount of protein, e.g. approximately 500 cpm binding of RAMH at Kd, were incubated for 1 hour at room temperature in 250 μl final volume in 96-well plates in presence of ^3H(R)α-methylhistamine (1 nM final concentration=Kd). Non-specific binding was determined using a 200 fold excess of cold (R)α-methylhistamine dihydrobromide.
All compounds were tested at a single concentration in duplicate. […] The concentration at which 50% inhibition of the radioligand ^3H(R)α-methylhistamine is obtained (the IC50) is determined from the linear regression of a plot of the logarithm of the concentration versus percent inhibition measured for the different concentrations. Ki's were calculated from IC50 based on Cheng-Prusoff equation (Cheng, Y, Prusoff, W H (1973) Biochem Pharmacol 22, 3099-3108): Ki=IC50/[1+D/Kd] wherein D is the concentration of the radioligand and Kd is the binding constant for the radioligand binding to the receptor under the conditions used in the competition experiment.
As usually defined, the Ki is the dissociation constant of the complex between target and ligand, obtained from inhibition or displacement. For `O=C([C@H]1CC[C@H](Oc2ccc(-n3cncn3)cc2)CC1)N1CCN(C2CCC2)CC1` [Example 1, Trans-(4-Cyclobutyl-piperazin-1-yl)-[4-(4-[1,2,4]triazol-1-yl-phenoxy)-cyclohexyl]-methanone], the Ki is 6.5 nM.

On to `CS(=O)(=O)c1ccc(O[C@H]2CC[C@H](C(=O)N3CCN(C4CCC4)CC3)CC2)nc1` [Example 13, trans-(4-Cyclobutyl-piperazin-1-yl)-[4-(5-methanesulfonyl-pyridin-2-yloxy)-cyclohexyl]-methanone], for which the Ki was 11.2 nM.

`CNC(=O)c1csc(O[C@H]2CC[C@H](C(=O)N3CCN(C(C)C)CC3)CC2)n1` [Example 27, trans-2-[4-(4-Isopropyl-piperazine-1-carbonyl)-cyclohexyloxy]-thiazole-4-carboxylic acid methylamide]: the Ki was 28.8 nM.

With `CC(C)c1nnc(-c2ccc(O[C@H]3CC[C@H](C(=O)N4CCN(C(C)C)CC4)CC3)cc2)o1` [Example 31, trans-{4-[4-(5-Isopropyl-[1,3,4]oxadiazol-2-yl)-phenoxy]-cyclohexyl}-(4-isopropyl-piperazin-1-yl)-methanone], the Ki is 5.6 nM.

As for `O=C1COCCN1c1ccc(O[C@H]2CC[C@H](C(=O)N3CCN(C4CCC4)CC3)CC2)cc1` [Example 42, trans-4-{4-[4-(4-Cyclobutyl-piperazine-1-carbonyl)-cyclohexyloxy]-phenyl}-morpholin-3-one], the Ki is 6.9 nM.

In the case of `CC(C)N1CCN(C(=O)[C@H]2CC[C@H](Oc3ccc(-c4ccncc4)cc3)CC2)CC1` [Example 50, trans-(4-Isopropyl-piperazin-1-yl)-[4-(4-pyridin-4-yl-phenoxy)-cyclohexyl]-methanone], the Ki was 4.4 nM.

These data come from patent US7544683B2, “Cyclohexyl derivatives” (Hoffmann-La Roche Inc., priority 2007, dated 2009).
